Test results from publication PMC7601674, “CoQ10 Deficient Endothelial Cell Culture Model for the Investigation of CoQ10 Blood–Brain Barrier Transport” (Journal of Clinical Medicine, 2020).

What was measured:
[1] = design: method as in PMID 17482886, PMID 22272129; conditions: after oral-supplementation in vivo; cited from earlier work
[2] = design: method as in PMID 9671775; conditions: diet supplemented with 200 mg/kg CoQ10 for 2 months; cited from earlier work
ataxic symptoms = test system: ataxic symptoms; design: method as in PMID 22490322; conditions: cerebellar ataxic phenotype, following CoQ10 supplementation; cited from earlier work
[3] = test system: primary porcine brain endothelial cells (PBEC) monolayer; assay: CoQ10 transport assay across PBEC monolayer on Transwell filters; conditions: for Transport to the Basal side, percentage of Apical compartment: A to B, no serum pre-incubation
Procedure: Primary porcine brain endothelial cells (PBEC) were isolated and cultured as previously published. Briefly, cells were seeded at 10 × 10^4 cells/cm^2 on collagen and fibronectin-coated polycarbonate Transwell filters (Corning 0.4 µm pore size) in 12-well plates, and grown in low glucose DMEM (Sigma D5546) supplemented with bovine plasma-derived serum (10% v/v; BPDS, First Link UK), glutamine (2 mM), heparin (125 µg/mL), penicillin (100 U/mL) and streptomycin (100 µg/mL), at 37 °C in a 5% CO2 incubator. PBECs were grown in non-contact co-culture above primary rat astrocytes until confluent, then supplemented with hydrocortisone (550 nM), 8-4-chlorophenylthio-cAMP (250 µM) and RO-20-1724 (17.5 µM) in serum-free medium for a further 3 days. Before assays of CoQ10 transport, PBECs were separated from astrocytes by moving transwell filters to fresh culture plates.
(§1) Unless stated, CoQ10 was pre-treated by incubation in serum at a concentration of 20 µM for 45 min at 37 °C, and added to assay buffer on either the Apical (blood facing) or Basal (brain facing) side of the cells on Transwell filters. The final concentration of CoQ10 used in the assays was 10 µM in serum (50% v/v). Cells were then incubated for 60 min on an orbital shaker (100 rpm) at 37 °C. Samples of the Apical (A) and Basal (B) media were then taken for analysis to calculate A to B (blood-to-brain) or B to A (brain-to-blood) Papp in cm/s, as previously described by Patabendige et al.. CoQ10 concentrations were determined using the LC-MS/MS method described above (Section 2.2).
(§2) Inhibitors of transport were added to both Apical and Basal sides of the cells for 2 h prior to assay. Antioxidants were pre-incubated with CoQ10 in serum for 45 min prior to assay, and were present in the assay buffer. Compounds used were; SR-B1 inhibitor, blocker of lipid transport-1 (BLT-1; 10 µmol/L)

[4] = test system: bEnd.3 cells (mouse BBB cell line) monolayer; assay: CoQ10 transport assay across bEnd.3 monolayer on Transwell filters (control or pABA treated)
Procedure: as §1, §2
As previously described, para-aminobenzoic acid (pABA) was used as a pharmacological reagent to induce CoQ10 deficiency. The mechanism of action is via competitive inhibition of polyprenyl-4-hydroxybenzoate transferase (Coq2p), a key enzyme in the later stages of the CoQ10 biosynthetic pathway. Following the method of Duberley et al., 1 mmol/L pABA was added to culture medium for 5 days prior to assay.

[5] = CoQ10 partition in serum lipoprotein fractions; type: in vitro ADME, bovine; conditions: for CoQ10 content in HDL fraction / CoQ10 content in LDL fraction: n = 3; for CoQ10 content in vLDL fraction: calculated by subtraction
Procedure: Bovine plasma-derived serum (BPDS) was either untreated or supplemented with 10 µM CoQ10 for 45 min at 37 °C. Serum lipoproteins were then fractionated according to the method of Ononogbu et al. and the CoQ10 content measured in each fraction by LC-MS/MS. This lipoprotein fraction method is comprised of two parallel precipitation-centrifugation extractions, yielding a separation of the major classes of lipoprotein as supernatants containing “LDL + HDL” and “HDL”. The concentration of CoQ10 in the “VLDL” fraction was calculated by subtraction.

[6] = test system: CoQ10 deficient human neuroblastoma cells; design: method as in PMID 24534273; conditions: treatment with 10 μmol/L CoQ10; cited from earlier work
[7] = design: method as in PMID 16647250; conditions: high-dose (1000–5000 mg/kg) CoQ10; cited from earlier work
[8] = serum supplemented with 10 μmol/L CoQ10
[9] = serum supplemented with 10 μmol/L CoQ10, 45 min

Q: Which results are given for `COC1=C(OC)C(=O)C(C/C=C(\C)CC/C=C(\C)CC/C=C(\C)CC/C=C(\C)CC/C=C(\C)CC/C=C(\C)CC/C=C(\C)CC/C=C(\C)CC/C=C(\C)CCC=C(C)C)=C(C)C1=O` [CoQ10, Coenzyme Q10]?
A: Highest achievable CoQ10 plasma concentration [1]: 10.7 µmol/L; Increase in cerebral cortex CoQ10 and CoQ9 [2]: 30%; Patients with improvement/stabilisation in ataxic symptoms (ataxic symptoms): 49%; Transport to the Basal side, percentage of Apical compartment ([3]; 30 min): undetectable; Transport to the Basal side, percentage of Apical compartment ([3]; after 2 h, n = 4): 0.51 ± 0.15%; Increase of transport across PBEC monolayer after pre-incubation in serum ([3]; CoQ10 pre-incubated 45 min in serum (BPDS) vs no serum): 4 fold; Effect of serum pre-incubation on Papp (A to B and B to A) ([3]; PBEC, 60 min): enhanced transport in both directions; Transport across monolayer after pABA treatment vs control ([3]; PBEC, pABA 1 mM 5 days): increased transport; Effect of serum pre-incubation on Papp (A to B and B to A) ([4]; bEnd.3, 60 min): enhanced transport in both directions; NET CoQ10 Apical to Basal Papp (A to B Papp - B to A Papp) ([4]; bEnd.3, Control): -2e-08 cm/s; NET CoQ10 Apical to Basal Papp (A to B Papp - B to A Papp) ([4]; bEnd.3, LDLR inhib (RAP 0.5 µM)): 1e-07 cm/s; NET CoQ10 Apical to Basal Papp (A to B Papp - B to A Papp) ([4]; bEnd.3, P-gp inhib (verapamil 0.1 mM)): -4e-08 cm/s; NET CoQ10 Apical to Basal Papp (A to B Papp - B to A Papp) ([4]; bEnd.3, RAGE inhib (FPS-ZM1 1 µM)): -8e-08 cm/s; NET CoQ10 Apical to Basal Papp (A to B Papp - B to A Papp) ([4]; bEnd.3, SR-B1 inhib (BLT-1 10 µM)): -1.3e-07 cm/s; Transport across monolayer after pABA treatment vs control ([4]; bEnd.3, pABA 1 mM 5 days): increased transport; Supplemented CoQ10 recovered in the vLDL/LDL fractions ([5]; serum supplemented with 10 µM CoQ10): More than 92%; % of CoQ10 in HDL fraction [5, 8]: 7.2%; % of CoQ10 in LDL fraction [5, 8]: 63.8%; % of CoQ10 in vLDL fraction [5, 8]: 29%; CoQ10 content in HDL fraction [5, 9]: 762 ± 8.1 nmol/L; CoQ10 content in LDL fraction [5, 9]: 6718 ± 103.5 nmol/L; CoQ10 content in vLDL fraction [5, 8]: 3060 ± 138.8 nmol/L; Serum endogenous CoQ10 content ([5]; untreated cell culture serum): 147.5 ± 0.5 nM; % of CoQ10 in HDL fraction ([5]; untreated serum): 21.7%; % of CoQ10 in LDL fraction ([5]; untreated serum): 77.7%; % of CoQ10 in vLDL fraction ([5]; untreated serum): 0.6%; CoQ10 content in HDL fraction ([5]; untreated serum): 32.7 ± 1.8 nmol/L; CoQ10 content in LDL fraction ([5]; untreated serum): 117.0 ± 1.2 nmol/L; CoQ10 content in vLDL fraction ([5]; untreated serum): 0.9 ± 0.01 nmol/L; MRC function [6]: restores MRC function; Brain levels of CoQ10 and CoQ9 [7]: significantly increased in brain levels of CoQ10 and CoQ9
